Results taken from the supplement of paper PMC10307832.

Assays:
Experiment in all cases: relative viability (nuclei count vs DMSO), 5 days (fraction); higher = more cells survive
NCI-H2228 = system: NCI-H2228
Outline: (§1)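 Relative viability was taken as the ratio of nuclei in treated wells to nuclei in vehicle wells. Lung cancer cell lines in 1536-well plates received compounds by pin tool one day after seeding, either one drug alone or a fixed anchor-drug dose plus five library-drug doses (not always all listed) in √10 steps. Nuclei were counted on 4× images after 5 days of treatment, and values are medians of duplicate plates.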

LOU-NH91 = system: LOU-NH91
Outline: as §1

NCI-H1650 = system: NCI-H1650
Outline: as §1

NCI-H1755 = system: NCI-H1755
Outline: as §1

LK-2 = system: LK-2
Outline: as §1

NCI-H1648 = system: NCI-H1648
Outline: as §1

NCI-H1666 = system: NCI-H1666
Outline: as §1

ABC-1 = system: ABC-1
Outline: as §1

A549 = system: A549
Outline: as §1

NCI-H1703 = system: NCI-H1703
Outline: as §1

Calu-6 = system: Calu-6
Outline: as §1

NCI-H1299 = system: NCI-H1299
Outline: as §1

EBC-1 = system: EBC-1
Outline: as §1

IA-LM = system: IA-LM
Outline: as §1

COCC1(CO)C(=O)C2CCN1CC2 (stereo unspecified) [PRIMA-1MET] + CC(=O)Nc1cccc(-n2c(=O)n(C3CC3)c(=O)c3c(Nc4ccc(I)cc4F)n(C)c(=O)c(C)c32)c1 [Trametinib] (partner 0.02 µM)
relative viability (NCI-H2228; first compound 0.2 µM): 0.197
relative viability (NCI-H2228; first compound 0.6325 µM): 0.371
relative viability (NCI-H2228; first compound 2 µM): 0.822
relative viability (NCI-H2228; first compound 6.325 µM): 0.335
relative viability (NCI-H2228; first compound 20 µM): 0.0574
relative viability (LOU-NH91; first compound 0.2 µM): 0.842
relative viability (LOU-NH91; first compound 0.6325 µM): 0.801
relative viability (LOU-NH91; first compound 2 µM): 0.793
relative viability (LOU-NH91; first compound 6.325 µM): 0.831
relative viability (LOU-NH91; first compound 20 µM): 0.535
relative viability (NCI-H1650; first compound 0.2 µM): 0.545
relative viability (NCI-H1650; first compound 0.6325 µM): 0.48
relative viability (NCI-H1650; first compound 2 µM): 0.636
relative viability (NCI-H1650; first compound 6.325 µM): 0.595
relative viability (NCI-H1650; first compound 20 µM): 0.0646
relative viability (NCI-H1755; first compound 0.2 µM): 0.676
relative viability (NCI-H1755; first compound 0.6325 µM): 0.729
relative viability (NCI-H1755; first compound 2 µM): 0.644
relative viability (NCI-H1755; first compound 6.325 µM): 0.745
relative viability (NCI-H1755; first compound 20 µM): 0.762
relative viability (LK-2; first compound 0.2 µM): 0.477
relative viability (LK-2; first compound 0.6325 µM): 0.766
relative viability (LK-2; first compound 2 µM): 0.357
relative viability (LK-2; first compound 6.325 µM): 0.455
relative viability (LK-2; first compound 20 µM): 0.199
relative viability (NCI-H1648; first compound 0.2 µM): 0.396
relative viability (NCI-H1648; first compound 2 µM): 0.445
relative viability (NCI-H1648; first compound 20 µM): 0.553
relative viability (NCI-H1666; first compound 0.2 µM): 0.886
relative viability (NCI-H1666; first compound 0.6325 µM): 0.815
relative viability (NCI-H1666; first compound 2 µM): 0.965
relative viability (NCI-H1666; first compound 6.325 µM): 0.759
relative viability (NCI-H1666; first compound 20 µM): 0.877

COCC1(CO)C(=O)C2CCN1CC2 (stereo unspecified) [PRIMA-1MET] + Nc1nc2[nH]cc(CCc3ccc(C(=O)N[C@@H](CCC(=O)O)C(=O)O)cc3)c2c(=O)[nH]1 [Pemetrexed] (partner 0.2 µM)
relative viability (NCI-H2228; first compound 0.2 µM): 0.351
relative viability (NCI-H2228; first compound 0.6325 µM): 0.332
relative viability (NCI-H2228; first compound 2 µM): 0.3
relative viability (NCI-H2228; first compound 6.325 µM): 0.305
relative viability (NCI-H2228; first compound 20 µM): 0.0521
relative viability (LOU-NH91; first compound 0.2 µM): 0.356
relative viability (LOU-NH91; first compound 0.6325 µM): 0.367
relative viability (LOU-NH91; first compound 2 µM): 0.405
relative viability (LOU-NH91; first compound 6.325 µM): 0.4
relative viability (LOU-NH91; first compound 20 µM): 0.344
relative viability (NCI-H1650; first compound 0.2 µM): 0.407
relative viability (NCI-H1650; first compound 0.6325 µM): 0.306
relative viability (NCI-H1650; first compound 2 µM): 0.399
relative viability (NCI-H1650; first compound 6.325 µM): 0.374
relative viability (NCI-H1650; first compound 20 µM): 0.304
relative viability (NCI-H1755; first compound 0.2 µM): 0.465
relative viability (NCI-H1755; first compound 0.6325 µM): 0.388
relative viability (NCI-H1755; first compound 2 µM): 0.406
relative viability (NCI-H1755; first compound 6.325 µM): 0.333
relative viability (NCI-H1755; first compound 20 µM): 0.373
relative viability (LK-2; first compound 0.2 µM): 0.271
relative viability (LK-2; first compound 0.6325 µM): 0.0831
relative viability (LK-2; first compound 2 µM): 0.221
relative viability (LK-2; first compound 6.325 µM): 0.125
relative viability (LK-2; first compound 20 µM): 0.0594
relative viability (NCI-H1648; first compound 0.2 µM): 0.72
relative viability (NCI-H1648; first compound 2 µM): 0.776
relative viability (NCI-H1648; first compound 20 µM): 0.637
relative viability (NCI-H1666; first compound 0.2 µM): 0.949
relative viability (NCI-H1666; first compound 0.6325 µM): 0.824
relative viability (NCI-H1666; first compound 2 µM): 0.742
relative viability (NCI-H1666; first compound 6.325 µM): 0.793
relative viability (NCI-H1666; first compound 20 µM): 0.814

COCC1(CO)C(=O)C2CCN1CC2 (stereo unspecified) [PRIMA-1MET] + CS(=O)(=O)CCNCc1ccc(-c2ccc3ncnc(Nc4ccc(OCc5cccc(F)c5)c(Cl)c4)c3c2)o1 [Lapatinib] (partner 2 µM)
relative viability (NCI-H2228; first compound 0.2 µM): 1.12
relative viability (NCI-H2228; first compound 0.6325 µM): 0.834
relative viability (NCI-H2228; first compound 2 µM): 1.59
relative viability (NCI-H2228; first compound 6.325 µM): 1.23
relative viability (NCI-H2228; first compound 20 µM): 0.0337
relative viability (ABC-1; first compound 0.2 µM): 1.05
relative viability (ABC-1; first compound 0.6325 µM): 1.11
relative viability (ABC-1; first compound 2 µM): 0.956
relative viability (ABC-1; first compound 6.325 µM): 1.17
relative viability (ABC-1; first compound 20 µM): 1.03
relative viability (A549; first compound 0.2 µM): 1.07
relative viability (A549; first compound 0.6325 µM): 0.977
relative viability (A549; first compound 2 µM): 1.05
relative viability (A549; first compound 6.325 µM): 1.01
relative viability (A549; first compound 20 µM): 0.943
relative viability (LOU-NH91; first compound 0.2 µM): 0.806
relative viability (LOU-NH91; first compound 0.6325 µM): 0.715
relative viability (LOU-NH91; first compound 2 µM): 0.656
relative viability (LOU-NH91; first compound 6.325 µM): 0.692
relative viability (LOU-NH91; first compound 20 µM): 0.496
relative viability (NCI-H1650; first compound 0.2 µM): 0.84
relative viability (NCI-H1650; first compound 0.6325 µM): 0.378
relative viability (NCI-H1650; first compound 2 µM): 0.426
relative viability (NCI-H1650; first compound 6.325 µM): 0.647
relative viability (NCI-H1650; first compound 20 µM): 0.81
relative viability (NCI-H1755; first compound 0.2 µM): 1.04
relative viability (NCI-H1755; first compound 0.6325 µM): 0.901
relative viability (NCI-H1755; first compound 2 µM): 0.846
relative viability (NCI-H1755; first compound 6.325 µM): 1.03
relative viability (NCI-H1755; first compound 20 µM): 0.907
relative viability (LK-2; first compound 0.2 µM): 0.885
relative viability (LK-2; first compound 0.6325 µM): 0.755
relative viability (LK-2; first compound 2 µM): 0.6
relative viability (LK-2; first compound 6.325 µM): 0.662
relative viability (LK-2; first compound 20 µM): 0.18
relative viability (NCI-H1703; first compound 0.2 µM): 1.25
relative viability (NCI-H1703; first compound 0.6325 µM): 0.834
relative viability (NCI-H1703; first compound 2 µM): 1.01
relative viability (NCI-H1703; first compound 6.325 µM): 1.04
relative viability (NCI-H1703; first compound 20 µM): 0.145
relative viability (Calu-6; first compound 0.2 µM): 1.14
relative viability (Calu-6; first compound 0.6325 µM): 1.08
relative viability (Calu-6; first compound 2 µM): 1.11
relative viability (Calu-6; first compound 6.325 µM): 1.01
relative viability (Calu-6; first compound 20 µM): 0.847
relative viability (NCI-H1299; first compound 0.2 µM): 0.977
relative viability (NCI-H1299; first compound 0.6325 µM): 0.996
relative viability (NCI-H1299; first compound 2 µM): 0.969
relative viability (NCI-H1299; first compound 6.325 µM): 0.99
relative viability (NCI-H1299; first compound 20 µM): 0.947
relative viability (EBC-1; first compound 0.2 µM): 0.22
relative viability (EBC-1; first compound 0.6325 µM): 0.214
relative viability (EBC-1; first compound 2 µM): 0.203
relative viability (EBC-1; first compound 6.325 µM): 0.216
relative viability (EBC-1; first compound 20 µM): 0.201
relative viability (NCI-H1666; first compound 0.2 µM): 0.765
relative viability (NCI-H1666; first compound 0.6325 µM): 0.584
relative viability (NCI-H1666; first compound 2 µM): 0.596
relative viability (NCI-H1666; first compound 6.325 µM): 0.688
relative viability (NCI-H1666; first compound 20 µM): 0.275
relative viability (IA-LM; first compound 0.2 µM): 0.686
relative viability (IA-LM; first compound 0.6325 µM): 0.746
relative viability (IA-LM; first compound 2 µM): 0.724
relative viability (IA-LM; first compound 6.325 µM): 0.73
relative viability (IA-LM; first compound 20 µM): 0.637
